# Measured values from ChEMBL document CHEMBL1201862, “PubChem BioAssay data set” (2004).
#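 Test compounds were applied to cells in 96-well plates for 48 hours at 5 doses. GI50 marks 50% less growth.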 Calls of active or inactive are those of the source. No stated cut-off is given here; in the data, active = GI50 up to about 1.1 µM and inactive = higher.
# Assays:
# Experiment in all cases: NCI tumour cell line growth inhibition, 48 h
# K562 = tested on: K562
# PC-3 = tested on: PC-3
# UACC-62 = tested on: UACC-62
# Malme-3M = tested on: Malme-3M
# NCI-H522 = tested on: NCI-H522
# SR = tested on: SR
# NCI-H23 = tested on: NCI-H23
# Hs-578T = tested on: Hs-578T
# SN12C = tested on: SN12C
# HCC 2998 = tested on: HCC 2998
# HL-60 = tested on: HL-60
# IGROV-1 = tested on: IGROV-1
# RPMI-8226 = tested on: RPMI-8226
# CCRF-CEM = tested on: CCRF-CEM
# SK-MEL-28 = tested on: SK-MEL-28
# COLO 205 = tested on: COLO 205
# HOP-62 = tested on: HOP-62
# M14 = tested on: M14
# HOP-92 = tested on: HOP-92
# HCT-116 = tested on: HCT-116
# BT-549 = tested on: BT-549
# U-251 = tested on: U-251
# T47D = tested on: T47D
# OVCAR-8 = tested on: OVCAR-8
# NCI-H460 = tested on: NCI-H460
# MDA-N = tested on: MDA-N
# HCT-15 = tested on: HCT-15
# OVCAR-5 = tested on: OVCAR-5
# MDA-MB-435 = tested on: MDA-MB-435
# SK-MEL-5 = tested on: SK-MEL-5
# A498 = tested on: A498
# SK-OV-3 = tested on: SK-OV-3
# CAKI-1 = tested on: CAKI-1
# RXF 393 = tested on: RXF 393
# MDA-MB-231 = tested on: MDA-MB-231
# NCI/ADR-RES = tested on: NCI/ADR-RES
# DU-145 = tested on: DU-145
# SNB-75 = tested on: SNB-75
# KM12 = tested on: KM12
# NCI-H226 = tested on: NCI-H226
# OVCAR-3 = tested on: OVCAR-3
# SK-MEL-2 = tested on: SK-MEL-2
# MCF7 = tested on: MCF7
# SNB-19 = tested on: SNB-19
# UO-31 = tested on: UO-31
# MOLT-4 = tested on: MOLT-4
# LOX IMVI = tested on: LOX IMVI
# SW-620 = tested on: SW-620
# SF-268 = tested on: SF-268
# 786-0 = tested on: 786-0
# SF-539 = tested on: SF-539
# HT-29 = tested on: HT-29
# EKVX = tested on: EKVX
# UACC-257 = tested on: UACC-257
# ACHN = tested on: ACHN
# A549 = tested on: A549
# TK-10 = tested on: TK-10
# OVCAR-4 = tested on: OVCAR-4
# SF-295 = tested on: SF-295
structure (smiles),measurement,setting,value
O=C(C[C@H](NC(=O)OCc1ccccc1)C(=O)NC1Cc2ccccc2OC1=O)OCc1ccccc1 (stereo partly drawn),GI50,K562,15.7 µM (inactive)
same,GI50,PC-3,21.8 µM (inactive)
same,GI50,UACC-62,> 10 µM (inactive)
same,GI50,Malme-3M,> 100 µM (inactive)
same,GI50,NCI-H522,> 100 µM (inactive)
same,GI50,SR,> 100 µM (inactive)
same,GI50,NCI-H23,> 100 µM (inactive)
same,GI50,Hs-578T,> 100 µM (inactive)
same,GI50,SN12C,36.4 µM (inactive)
same,GI50,HCC 2998,15.9 µM (inactive)
same,GI50,HL-60,> 10 µM (inactive)
same,GI50,IGROV-1,> 100 µM (inactive)
same,GI50,RPMI-8226,> 100 µM (inactive)
same,GI50,CCRF-CEM,17.4 µM (inactive)
same,GI50,SK-MEL-28,> 100 µM (inactive)
same,GI50,COLO 205,> 100 µM (inactive)
same,GI50,HOP-62,> 100 µM (inactive)
same,GI50,M14,> 100 µM (inactive)
same,GI50,HOP-92,> 100 µM (inactive)
same,GI50,HCT-116,29.2 µM (inactive)
same,GI50,BT-549,> 100 µM (inactive)
same,GI50,U-251,> 100 µM (inactive)
same,GI50,T47D,94.8 µM (inactive)
same,GI50,OVCAR-8,> 100 µM (inactive)
same,GI50,NCI-H460,41.6 µM (inactive)
same,GI50,MDA-N,> 100 µM (inactive)
same,GI50,HCT-15,46 µM
same,GI50,OVCAR-5,> 100 µM (inactive)
same,GI50,MDA-MB-435,> 100 µM (inactive)
same,GI50,SK-MEL-5,> 100 µM (inactive)
same,GI50,A498,> 100 µM (inactive)
same,GI50,SK-OV-3,> 100 µM (inactive)
same,GI50,CAKI-1,70 µM (inactive)
same,GI50,RXF 393,> 100 µM (inactive)
same,GI50,MDA-MB-231,26.7 µM (inactive)
same,GI50,NCI/ADR-RES,> 100 µM (inactive)
same,GI50,DU-145,59.6 µM (inactive)
same,GI50,SNB-75,> 100 µM (inactive)
same,GI50,KM12,> 100 µM (inactive)
same,GI50,NCI-H226,> 100 µM (inactive)
same,GI50,OVCAR-3,> 100 µM (inactive)
same,GI50,SK-MEL-2,> 100 µM (inactive)
same,GI50,MCF7,19.4 µM (inactive)
same,GI50,SNB-19,> 100 µM (inactive)
same,GI50,UO-31,> 100 µM (inactive)
same,GI50,MOLT-4,> 100 µM (inactive)
CCC(CCC(C)C1CCC2C3CC=C4CC(OC5OC(CO)C(O)C(O)C5O)CCC4(C)C3CCC12C)C(C)C (stereo not drawn),GI50,PC-3,> 100 µM (inactive)
same,GI50,UACC-62,> 100 µM (inactive)
same,GI50,Malme-3M,> 100 µM (inactive)
same,GI50,NCI-H522,> 100 µM (inactive)
same,GI50,SR,26.4 µM (inactive)
same,GI50,NCI-H23,> 100 µM (inactive)
same,GI50,LOX IMVI,> 100 µM (inactive)
same,GI50,Hs-578T,> 100 µM (inactive)
same,GI50,SW-620,> 100 µM (inactive)
same,GI50,SF-268,> 100 µM (inactive)
same,GI50,SN12C,> 100 µM (inactive)
same,GI50,HCC 2998,> 100 µM (inactive)
same,GI50,HL-60,> 100 µM (inactive)
same,GI50,IGROV-1,> 100 µM (inactive)
same,GI50,786-0,> 100 µM (inactive)
same,GI50,RPMI-8226,> 100 µM (inactive)
same,GI50,CCRF-CEM,> 100 µM (inactive)
same,GI50,SF-539,> 100 µM (inactive)
same,GI50,SK-MEL-28,> 100 µM (inactive)
same,GI50,COLO 205,> 100 µM (inactive)
same,GI50,HOP-62,> 100 µM (inactive)
same,GI50,M14,> 100 µM (inactive)
same,GI50,HT-29,> 100 µM (inactive)
same,GI50,HOP-92,> 100 µM (inactive)
same,GI50,HCT-116,> 100 µM (inactive)
same,GI50,EKVX,> 100 µM (inactive)
same,GI50,BT-549,> 100 µM (inactive)
same,GI50,U-251,> 100 µM (inactive)
same,GI50,T47D,> 100 µM (inactive)
same,GI50,UACC-257,> 100 µM (inactive)
same,GI50,ACHN,> 100 µM (inactive)
same,GI50,OVCAR-8,> 100 µM (inactive)
same,GI50,NCI-H460,> 100 µM (inactive)
same,GI50,A549,> 100 µM (inactive)
same,GI50,MDA-N,> 100 µM (inactive)
same,GI50,HCT-15,> 100 µM
same,GI50,OVCAR-5,> 100 µM (inactive)
same,GI50,MDA-MB-435,> 100 µM (inactive)
same,GI50,SK-MEL-5,> 100 µM (inactive)
same,GI50,TK-10,> 100 µM (inactive)
same,GI50,A498,> 100 µM (inactive)
same,GI50,SK-OV-3,> 100 µM (inactive)
same,GI50,CAKI-1,> 100 µM (inactive)
same,GI50,RXF 393,> 100 µM (inactive)
same,GI50,MDA-MB-231,> 100 µM (inactive)
same,GI50,NCI/ADR-RES,> 100 µM (inactive)
same,GI50,DU-145,> 100 µM (inactive)
same,GI50,OVCAR-4,> 100 µM (inactive)
same,GI50,KM12,> 100 µM (inactive)
same,GI50,SF-295,98.9 µM (inactive)
same,GI50,NCI-H226,> 100 µM (inactive)
same,GI50,OVCAR-3,> 100 µM (inactive)
same,GI50,SK-MEL-2,> 100 µM (inactive)
same,GI50,MCF7,> 100 µM (inactive)
same,GI50,SNB-19,> 100 µM (inactive)
same,GI50,UO-31,> 100 µM (inactive)
same,GI50,MOLT-4,> 100 µM (inactive)
